Test results: patent US8916565B2, “Pyrrolopyrazine-spirocyclic piperidine amides as modulators of ion channels” (priority 2011, dated 2014)

molecular target: human NaV subtype, like NaV 1.7 (Homo sapiens, UniProt Q15858); assay: E-VIPR optical membrane potential assay with electrical stimulation; type: cell-based; details: active against one or more sodium channels; Table 3 does not name the assay or NaV subtype; read-out: Binned Activity Data (IC50)
Sequence (Q15858 whole entry): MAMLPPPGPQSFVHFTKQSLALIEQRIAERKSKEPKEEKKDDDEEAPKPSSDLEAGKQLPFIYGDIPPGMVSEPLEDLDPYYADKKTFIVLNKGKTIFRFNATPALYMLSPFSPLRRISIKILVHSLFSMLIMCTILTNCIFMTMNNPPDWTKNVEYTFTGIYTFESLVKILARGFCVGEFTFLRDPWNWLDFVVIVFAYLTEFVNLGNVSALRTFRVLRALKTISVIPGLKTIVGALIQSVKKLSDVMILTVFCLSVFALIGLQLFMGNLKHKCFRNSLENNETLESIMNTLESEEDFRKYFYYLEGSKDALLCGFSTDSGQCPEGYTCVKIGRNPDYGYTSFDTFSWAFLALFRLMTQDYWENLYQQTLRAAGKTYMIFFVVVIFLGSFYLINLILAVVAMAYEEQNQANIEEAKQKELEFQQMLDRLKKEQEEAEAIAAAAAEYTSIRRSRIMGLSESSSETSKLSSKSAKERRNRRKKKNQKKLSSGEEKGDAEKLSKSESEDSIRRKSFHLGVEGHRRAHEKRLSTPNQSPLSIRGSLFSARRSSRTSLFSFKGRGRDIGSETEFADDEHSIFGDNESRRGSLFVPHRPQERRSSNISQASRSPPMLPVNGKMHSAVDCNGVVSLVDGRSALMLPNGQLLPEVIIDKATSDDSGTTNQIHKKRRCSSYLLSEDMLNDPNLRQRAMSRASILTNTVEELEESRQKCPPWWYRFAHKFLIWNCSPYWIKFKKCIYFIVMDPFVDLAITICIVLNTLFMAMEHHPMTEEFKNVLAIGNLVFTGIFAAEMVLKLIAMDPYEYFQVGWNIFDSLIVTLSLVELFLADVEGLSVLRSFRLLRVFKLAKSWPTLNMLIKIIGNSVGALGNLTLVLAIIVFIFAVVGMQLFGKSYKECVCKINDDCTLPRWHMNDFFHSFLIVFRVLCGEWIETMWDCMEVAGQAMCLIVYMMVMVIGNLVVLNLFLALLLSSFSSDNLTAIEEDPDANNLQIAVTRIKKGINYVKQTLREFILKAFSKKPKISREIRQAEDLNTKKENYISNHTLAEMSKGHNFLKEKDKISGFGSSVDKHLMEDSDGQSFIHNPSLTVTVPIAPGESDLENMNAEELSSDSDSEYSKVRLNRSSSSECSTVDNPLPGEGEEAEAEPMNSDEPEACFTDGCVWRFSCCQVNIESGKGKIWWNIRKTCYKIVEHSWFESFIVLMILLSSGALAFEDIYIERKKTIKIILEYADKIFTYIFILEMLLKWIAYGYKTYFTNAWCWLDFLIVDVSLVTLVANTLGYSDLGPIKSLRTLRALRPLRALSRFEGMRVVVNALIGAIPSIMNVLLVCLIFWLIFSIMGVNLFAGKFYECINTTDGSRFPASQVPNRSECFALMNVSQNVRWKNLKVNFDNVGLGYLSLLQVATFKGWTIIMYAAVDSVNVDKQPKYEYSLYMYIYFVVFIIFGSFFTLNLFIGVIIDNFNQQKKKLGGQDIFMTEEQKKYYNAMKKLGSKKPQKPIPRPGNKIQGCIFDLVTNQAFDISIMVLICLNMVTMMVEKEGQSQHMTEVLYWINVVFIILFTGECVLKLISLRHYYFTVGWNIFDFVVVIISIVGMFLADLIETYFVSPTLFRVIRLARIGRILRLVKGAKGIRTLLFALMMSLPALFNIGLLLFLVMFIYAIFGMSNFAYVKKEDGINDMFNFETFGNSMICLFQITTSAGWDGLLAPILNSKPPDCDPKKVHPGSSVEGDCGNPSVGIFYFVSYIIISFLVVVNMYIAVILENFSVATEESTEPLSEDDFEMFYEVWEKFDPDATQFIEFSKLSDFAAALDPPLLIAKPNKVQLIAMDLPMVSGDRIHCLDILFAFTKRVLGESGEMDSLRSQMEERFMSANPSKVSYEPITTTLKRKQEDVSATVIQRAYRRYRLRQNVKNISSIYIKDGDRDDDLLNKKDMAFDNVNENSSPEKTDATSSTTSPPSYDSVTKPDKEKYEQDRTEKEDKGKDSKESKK

IC50 [nM]	SMILES
2000 to 5000	CN1CCn2c(Cl)ccc2C12CCN(C(=O)c1ccc(OCC3CC3)cc1)CC2 [Compound 147]
≤ 2000	Cc1cc(C(=O)N2CCC3(CC2)c2ccc(C(=O)C(F)(F)F)n2CCN3C)ccc1OCCCO [Compound 148]
≤ 2000	COc1cc(C(=O)N2CCC3(CC2)c2ccc(C(F)(F)F)n2CC(C)N3C)ccc1OC(C)C (stereo not drawn) [Compound 149]
≤ 2000	CC(C)C(O)c1ccc(C(=O)N2CCC3(CC2)c2ccc(C(F)(F)F)n2CCN3C)cc1 (stereo not drawn) [Compound 150]
≤ 2000	COc1cc(C(=O)N2CCC3(CC2)c2ccc(C(F)(F)F)n2CCN3C)ccc1C(C)(C)CO [Compound 151]
≤ 2000	CC(C)Oc1ccc(C(=O)N2CCC3(CC2)c2ccc(C(F)(F)F)n2C[C@H](C)N3C)c(F)c1 [Compound 152]
> 5000	Cc1cc(S(=O)(=O)C(C)C)ccc1C(=O)N1CCC2(CC1)c1ccc(C(=O)C(F)(F)F)n1CCN2C [Compound 153]
2000 to 5000	CC(C)c1ccc(C(=O)N2CCC3(CC2)c2ccc(C(=O)C(F)(F)F)n2CCN3C)cc1S(C)(=O)=O [Compound 154]
> 5000	CN1CCn2c(C(F)(F)F)ccc2C12CCN(C(=O)c1ccc(Oc3ccccc3)cc1)CC2 [Compound 155]
≤ 2000	Cc1cc(C(=O)N2CCC3(CC2)c2ccc(C(F)(F)F)n2CCN3CCO)ccc1OC(C)C [Compound 156]
≤ 2000	COc1cc(C(=O)N2CCC3(CC2)c2ccc(C(F)(F)F)n2CCN3C)ccc1OC(C)(C)C [Compound 158]
2000 to 5000	Cc1cc(C(F)F)n2ncc(C(=O)N3CCC4(CC3)NCCn3c(C(F)(F)F)ccc34)c2n1 [Compound 159]
≤ 2000	CC(C)Oc1ccc(C(=O)N2CCC3(CC2)c2ccc(C(=O)C(F)(F)F)n2CCN3C)cc1CO [Compound 160]
≤ 2000	Cc1cc(C(=O)N2CCC3(CC2)c2ccc(C(=O)C4(C)CC4)n2CCN3C)ccc1O [Compound 161]
≤ 2000	CC(C)Nc1ccnc2c(C(=O)N3CCC4(CC3)c3ccc(C(F)(F)F)n3CCN4C)cnn12 [Compound 162]
> 5000	CC(=O)c1ccc2n1CCN(C)C21CCN(C(=O)c2ccc(-c3ccccc3)cc2)CC1 [Compound 163]
≤ 2000	COc1ccc(C(=O)N2CCC3(CC2)c2ccc(C(=O)C(F)(F)F)n2C(C)CN3C)cc1C (stereo not drawn) [Compound 164]
≤ 2000	Cc1cc(C(=O)N2CCC3(CC2)c2ccc(C(F)(F)F)n2CCN3CC#N)ccc1OC(C)C [Compound 165]
> 5000	CN1CCn2c(C(F)(F)F)ccc2C12CCN(C(=O)c1cccc(Cl)c1)CC2 [Compound 166]
≤ 2000	CCN1CCn2c(C(F)(F)F)ccc2C12CCN(C(=O)c1ccc(OC(C)C)c(OC)c1)CC2 [Compound 167]
≤ 2000	COc1cc(C(=O)N2CCC3(CC2)c2ccc(C(F)(F)F)n2CCN3C)ccc1OCCOC(F)(F)F [Compound 168]
≤ 2000	Cc1cc(-c2ccc(C(=O)N3CCC4(CC3)c3ccc(C(=O)C(F)(F)F)n3CCN4C)cc2C)ccn1 [Compound 169]
> 5000	COc1cc(C(=O)N2CCC3(CC2)c2ccc(C(F)(F)F)n2CCN3C(C)=O)ccc1OC(C)C [Compound 170]
≤ 2000	COc1cc(C(=O)N2CCC3(CC2)NCC(C)n2c(C(=O)C(F)(F)F)ccc23)ccc1OCCOC(F)(F)F (stereo not drawn) [Compound 171]
≤ 2000	CN1CCn2c(C(=O)C(F)(F)F)ccc2C12CCN(C(=O)c1ccc(-c3ccccc3)cc1)CC2 [Compound 172]
≤ 2000	COc1ccc(C(=O)N2CCC3(CC2)NCC(C)n2c(C(=O)C(F)(F)F)ccc23)cc1C(F)(F)F (stereo not drawn) [Compound 173]
≤ 2000	CC(=O)c1ccc2n1C(C)(C)CN(C)C21CCN(C(=O)c2ccc(OC(C)C)c(C)c2)CC1 [Compound 174]
≤ 2000	CN1CCn2c(C(=O)C(F)(F)F)ccc2C12CCN(C(=O)c1ccc(OCC(F)(F)F)cc1)CC2 [Compound 175]
2000 to 5000	CC(C)S(=O)(=O)c1ccc(C(=O)N2CCC3(CC2)c2ccc(C(=O)C(C)(C)C)n2CCN3C)cc1 [Compound 176]
> 5000	Cc1cc(C(=O)N2CCC3(CC2)c2ccc(C(F)(F)F)n2CCN3C)ccc1F [Compound 177]
